Assays:
CREB = CREB phosphorylation by Western blot; type: cell-based; conditions: H89 10 μM pre-treatment or oleoyl-LPI in control cells
Procedure: When cell cultures reached 80-90%, media were removed and cells were washed twice with 1×PBS. The cells were lysed in 150 μl (for one well of a 6 well plate) of Triton X-100 lysis buffer, containing phosphatase inhibitor cocktail (1:1000) (Sigma Aldrich, UK) and protease inhibitor (1:1000, Sigma Aldrich, UK). Cells were detached with scrapers and lysate were collected and centrifuged at 10,000 rpm, 4° C. for 5 minutes. The supernatant was then transferred to a 1.5 ml microcentrifuge tube and used for protein quantification. Cell lysates were stored at −20° C. for longer storage. All lysates were prepared on ice.
Non-specific antibody binding was prevented by incubating the nitrocellulose membrane in 5% milk in PBS-0.05% Tween-20 (v/v) for 30 minutes on a rotating plate. The membrane was then washed in PBS-0.05% Tween-20 (v/v) and then incubated with the primary antibody diluted in PBS-0.05% Tween-20 (v/v) on a rotating plate overnight at 4° C. After 24 hours, the membrane was washed 5× for 5 minutes with PBS-0.05% Tween-20 (v/v), and then incubated on a rotating plate with the appropriate secondary antibody for 1 hour at room temperature. […]

[1] = test system: colonic cells of the GI tract obtained from guinea pig; assay: Ex vivo GLP-1 biosynthesis and secretion, guinea pig GI tract cells; type: cell-based
Method in brief: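 Colonic/rectal crypts and cells from a pregnant guinea pig, collagenase-P digested and cultured one day on Matrigel, then exposed 2 h at 37 °C in serum-free DMEM with KR-62436 10 μg/ml and compound (20 μM, quadruplicate; EC50 also determined). Active GLP-1 in supernatant measured by ELISA, normalised to DMSO control.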

EC50 ([1]; ex vivo incubation 2 hours, quadruplicates): 32.7 µM
Substance: oleoyl-lysophosphatidylinositol [oleoyl-LPI]
phosphorylation of CREB (CREB): able to stimulate CREB phosphorylation
GLP-1 biosynthesis and secretion ex vivo ([1]; 20 μM, 2 hours, standardized against DMSO control): stimulated biosynthesis and secretion

From US12503426B2, “Synthetic derivatives of oleoyl-lysophosphatidylinositol (oleoyl-LPI) and uses thereof” (LIPOVEXA SRL, priority 2017, dated 2025)
